Data taken from patent US20260232726A1, “USE OF BORON FOR THE TREATMENT OF LEISHMANIASIS DISEASE OF NEURONAL ORIGIN” (YEDITEPE UNIVERSITESI, priority 2023, published 2026).
Like-named read-outs stand apart in the source and are kept apart here.

Experiments:
leishmaniasis = conditions: cited from earlier work
[1] = test system: healthy C8-S astrocyte cells; assay: Cell viability of healthy astrocytes treated with SPT (MTS method); type: cell-based, murine
Experimental: (§1) Astrocyte C8-S murine cell line (ATCC) is grown as monolayer in RPMI 1640 nutrient medium (2 mM L-glutamine, 100 U/ml penicillin, 100 μg/ml streptomycin) with 10% FBS, heat inactivated in a humidified atmosphere environment with 5% C02 at 37° C. Cells are passaged at 3-day intervals.
3. Treating Astrocytes with SPT and Determining Cell Viability
Cells were seeded in 96-well culture dishes (Coming Glasswork, Coming, NY) in Dulbecco's modified Eagle's medium (DMEM) containing 10% fetal bovine serum (lnvitrogen) and 1% PSA (Biological Industries, Beit Haemek, Israel) at 8.000 cells/well and then treated with SPT, and cell viability levels were measured on days 1, 2 and 3. Cell viability is measured by using 3-(4,5-di-methyl-thiazol-2-yl)-5-(3-carboxy-methoxy-phenyl)-2-(4-sulfo-phenyl)-2H-tetrazolium (MTS)-method (CellTiter96 AqueousOne Solution; Promega, Southampton, UK). 10 μl MTS solution is added onto the cells in 100 μl growth medium and they are incubated in the dark for 2 hours. After the incubation period, viability analysis is obtained by performing absorbance measurement with an ELISA plate reader (Biotek, Winooski, VT) at 490 nm wavelength.

[2] = test system: C8-S astrocyte cells infected with L. infantum parasites; assay: Infection rate of astrocytes infected with parasites after SPT treatment (flow cytometer); type: cell-based, Leishmania infantum
Experimental: Leishmania infimtum (MHOM/MA/67/TTMA-P263) promastigotes are incubated in RPMI medium (heat inactivated 1 0/4) fetal bovine serum, 2 mM L-glutamine, 20 mM HEPES, 100 U/ml penicillin, 100 μg/ml streptomycin) at 27° C. Parasites reaching the logarithmic phase (10^6/ml) are made infective.
as §1
C8-S astrocytes and L. infantum promastigotes were stained with PKH26 (Red Fluorescent Cell Linker Kit, Sigma-Aldrich) and PKH67 (Green Fluorescent Cell Linker Kit, Sigma-Aldrich), respectively, according to the procedure described previously in the article by Islek et al. (2021). A total cell concentration of 10^7 cells/ml was used. Before infection, the staining rate of parasites and cells was determined by flow cytometry.
5. Treating the Infected Astrocytes with SPT
The effect of SPT on the proliferation of astrocyte cells infected with parasites is analyzed. In summary, astrocytes are infected with parasites at 37° cat a ratio of 10:1 (parasite: astrocyte). After 3 and a half hours, infected astrocytes are washed with medium to remove the remaining parasites. Infected astrocytes are left to incubate with SPT at different concentration ranges for 3 days at 37° C., fixed at the end of 3 days and the infection rate is determined by flow cytometer. The percentage of infection is determined according to the following formula: […]

[3] = test system: GSH level in astrocytes infected with Leishmania; assay: Oxidative stress by measurement of glutathione (GSH) level in infected astrocytes (DTNB); type: cell-based, murine; conditions: 50, 100, 150 and 200 μM SPT; 24 hours
Experimental: 6. Determining the Oxidative Stress by Measurement of Glutathione (GSH) Level in Astrocytes Infected with Leishmania
To determine the GSH level of infected astrocytes, cell lysate (50 ul) is suspended in DTNB (Ellman's reagent—5,5′-Dithiobis(2-nitrobenzoic acid)) (10 uL). Then, EDTA buffer solution (pH 8.2) is added to this mixture in a 96-well plate. After incubation in the dark at 37° C. for 30 minutes, absorbance is measured colorimetrically at a wavelength of 412 nm using a UV spectrophotometer (Thermo Scientific, Finland). The results are expressed as μmol/g protein.

[4] = SPT 50-400 μM, 24, 48 and 72 hours

CCCCCCCCCCCCCCCCOP(=O)([O-])OCC[N+](C)(C)C [Miltefosine]
cure (leishmaniasis; miltefosine data compared with 6-month Amphotericin B therapy): 94% | cure (leishmaniasis; oral, 3-4-week treatment): 95-100%

C[C@@H]1[C@H](O)[C@@H](C)/C=C/C=C/C=C/C=C/C=C/C=C/C=C/[C@H](O[C@@H]2O[C@H](C)[C@@H](O)[C@H](N)[C@@H]2O)C[C@@H]2O[C@](O)(C[C@@H](O)C[C@@H](O)[C@H](O)CC[C@@H](O)C[C@@H](O)CC(=O)O[C@H]1C)C[C@H](O)[C@H]2C(=O)O [Amphotericin B]
cure (leishmaniasis; 6-month therapy): 97% | cure rate (leishmaniasis; cases where antimonial resistance is observed): ~100%

O.O.O.O.[Na+].[O-]B1OO1 [SPT, sodium perborate tetrahydrate]
astrocyte cell viability compared to the negative control group ([1]; 100 μM SPT, after 72 hours): 100% | cell viability of healthy C8-S astrocytes ([1]; 200 μM SPT, 24, 48 and 72 hours): above 100% | toxic effect on healthy cells [1, 4]: showed no toxic effect on healthy cells | infection rate of infected astrocytes ([2]; 75 μM SPT, 24 hours, negative control approximately 23%): 20±3.33% | infection rate of infected astrocytes ([2]; 75 μM SPT, 72 hours, negative control 13%): approximately 4% | infection rate of infected astrocytes ([2]; 100 μM SPT, 24 hours, negative control approximately 23%): 17±2.86% | infection rate of infected astrocytes ([2]; 150 μM SPT, 24 hours, negative control approximately 23%): 11.89±3.56% | infection rate of infected astrocytes ([2]; 200 μM SPT, 24 hours, negative control approximately 23%): 7.97±1.51% | infection rate of infected astrocytes ([2]; 400 μM SPT, 24 hours, negative control approximately 23%): 12.63±1.78% | infection rate of infected astrocytes ([2]; 100, 150, 200, and 400 μM SPT, 72 hours, negative control 13%): ~7% | cell viability on astrocytes infected with Leishmania infantum promastigotes [2, 4]: statistically decreased cell viability | effect on cells infected with L. infantum parasites ([2]; SPT 75-200 μM): significant reduction | GSH levels in infected astrocytes compared to the negative control [3]: significantly inducing GSH levels
